Results taken from US4950669A, “Methods and compositions for promoting growth of animals” (priority 1987, dated 1990).

How the values were obtained:
[1] = six-week swine feeding study, weanling barrows (Example XI); type: in vivo; conditions: six weeks; for daily feed (rel.) / Avg. daily gain (rel.): control = 100; for Avg. daily gain / Avg. daily gain (rel.): swine feed
Description: N-morpholinyl-β-benzoyl-propionamide was admixed with swine feed at 20 ppm and at 60 ppm. A six-week feeding study was conducted using weanling barrows. Pigs averaging 8.80 kg initially (4-5 weeks of age) were housed four pigs per pen. Test diets were fed ad libitum throughout the six-week study. Average final weight for all pigs was 27.33 kg.

[2] = 70-day lamb study, oral or i.m. injection (Example XVII); type: in vivo, lambs
Description: A 70-day study was conducted in which N-morpholinyl-β-benzoyl-propionamide was administered to lambs by i.m. injection or by admixture with feed. In the case of oral administration, the N-morpholinyl-β-benzoyl-propionamide was mixed with the complete mixed ration at a level of 30 ppm.

[3] = 44-day floor pen study in chickens (Example XIV); type: in vivo
Description: A 44-day floor pen study was conducted in which n-morpholinyl-β-benzoyl-propionamide was administered in chicken feed at concentrations of 1 ppm, 2.5 ppm, 5 ppm, 10 ppm, 20 ppm, 40 ppm and 60 ppm. One group of controls received no medication in its feed, while a second control group received Bacitracin MD in its feed at 30 g/ton. Birds were fed ad libitum. There were 5 replications per treatment, 50 birds per replication. Birds were weighed to determine weight gain and feed-to-gain ration after 35 days and 44 days.

[4] = acute toxicity (LD50) in the mouse; type: in vivo; conditions: for LD50: in vivo
[5] = Injection, 1.5 mg/kg i.m. every 2 weeks
[6] = Injection, 1.5 mg/kg i.m. every 2 weeks, Day 0-14
[7] = Injection, 1.5 mg/kg i.m. every 2 weeks, Day 0-28
[8] = Injection, 1.5 mg/kg i.m. every 2 weeks, Day 0-42
[9] = Injection, 1.5 mg/kg i.m. every 2 weeks, Day 0-56
[10] = Injection, 1.5 mg/kg i.m. every 2 weeks, Day 0-70
[11] = Injection, 1.5 mg/kg i.m. every 2 weeks, Day 15-28
[12] = Injection, 1.5 mg/kg i.m. every 2 weeks, Day 29-42
[13] = Injection, 1.5 mg/kg i.m. every 2 weeks, Day 43-56
[14] = Injection, 1.5 mg/kg i.m. every 2 weeks, Day 57-70

## O=C(CCC(=O)N1CCOCC1)c1ccccc1 [NMBP, N-morpholinyl-β-benzoyl-propionamide]
[1]; 20 ppm
  daily feed: 1.022 kg
  daily feed (rel.): 107
  Avg. daily gain: 0.45 kg
  Avg. daily gain (rel.): 108
[1]; 60 ppm
  daily feed: 0.96 kg
  daily feed (rel.): 101
  Avg. daily gain: 0.42 kg
  Avg. daily gain (rel.): 100
[2]; Injection group, during the previous 2-week period, sacrificed on Day 55
  weight loss of one lamb: 10 pounds
[2]; Injection group, one lamb sacrificed on Day 55
  Necropsy of one lamb: chronic focal pneumonia
[2]; [5]
  Daily Gain, Period: .16 kilograms
  Weight, Final: 42.1 kilograms
[2]; Injection, 1.5 mg/kg i.m. every 2 weeks (baseline)
  Weight, Initial: 27.6 kilograms
[2]; [6]
  Daily Feed DM Consumption, Cumulative: 0.94 kilograms
  Daily Feed DM Consumption, Period: 0.94 kilograms
  Daily Gain, Cumulative: .23 kilograms
  Daily Gain, Period: .23 kilograms
  Feed DM/Gain, Cumulative: 4.09
  Feed DM/Gain, Period: 4.09
[2]; [7]
  Daily Feed DM Consumption, Cumulative: 1.00 kilograms
  Daily Gain, Cumulative: .22 kilograms
  Feed DM/Gain, Cumulative: 4.55
[2]; [8]
  Daily Feed DM Consumption, Cumulative: 1.05 kilograms
  Daily Gain, Cumulative: .22 kilograms
  Feed DM/Gain, Cumulative: 4.77
[2]; [9]
  Daily Feed DM Consumption, Cumulative: 1.06 kilograms
  Daily Gain, Cumulative: .22 kilograms
  Feed DM/Gain, Cumulative: 4.82
[2]; [10]
  Daily Feed DM Consumption, Cumulative: 1.11 kilograms
  Daily Gain, Cumulative: .21 kilograms
  Feed DM/Gain, Cumulative: 5.29
[2]; [11]
  Daily Feed DM Consumption, Period: 1.06 kilograms
  Daily Gain, Period: .21 kilograms
  Feed DM/Gain, Period: 5.05
[2]; [12]
  Daily Feed DM Consumption, Period: 1.14 kilograms
  Daily Gain, Period: .22 kilograms
  Feed DM/Gain, Period: 5.18
[2]; [13]
  Daily Feed DM Consumption, Period: 1.12 kilograms
  Daily Gain, Period: .22 kilograms
  Feed DM/Gain, Period: 5.09
[2]; [14]
  Daily Feed DM Consumption, Period: 1.29 kilograms
  Feed DM/Gain, Period: 8.06
[2]; Oral, 30 ppm
  Daily Gain, Period: .14 kilograms
  Weight, Final: 43.0 kilograms
[2]; Oral, 30 ppm (baseline)
  Weight, Initial: 28.1 kilograms
[2]; Oral, 30 ppm, Day 0-14
  Daily Feed DM Consumption, Cumulative: 1.05 kilograms
  Daily Feed DM Consumption, Period: 1.05 kilograms
  Daily Gain, Cumulative: .27 kilograms
  Daily Gain, Period: .27 kilograms
  Feed DM/Gain, Cumulative: 3.89
  Feed DM/Gain, Period: 3.89
[2]; Oral, 30 ppm, Day 0-28
  Daily Feed DM Consumption, Cumulative: 1.10 kilograms
  Daily Gain, Cumulative: .24 kilograms
  Feed DM/Gain, Cumulative: 4.58
[2]; Oral, 30 ppm, Day 0-42
  Daily Feed DM Consumption, Cumulative: 1.12 kilograms
  Daily Gain, Cumulative: .23 kilograms
  Feed DM/Gain, Cumulative: 4.87
[2]; Oral, 30 ppm, Day 0-56
  Daily Feed DM Consumption, Cumulative: 1.14 kilograms
  Daily Gain, Cumulative: .23 kilograms
  Feed DM/Gain, Cumulative: 4.96
[2]; Oral, 30 ppm, Day 0-70
  Daily Feed DM Consumption, Cumulative: 1.16 kilograms
  Daily Gain, Cumulative: .21 kilograms
  Feed DM/Gain, Cumulative: 5.52
[2]; Oral, 30 ppm, Day 15-28
  Daily Feed DM Consumption, Period: 1.16 kilograms
  Daily Gain, Period: .20 kilograms
  Feed DM/Gain, Period: 5.80
[2]; Oral, 30 ppm, Day 29-42
  Daily Feed DM Consumption, Period: 1.17 kilograms
  Daily Gain, Period: .22 kilograms
  Feed DM/Gain, Period: 5.32
[2]; Oral, 30 ppm, Day 43-56
  Daily Feed DM Consumption, Period: 1.19 kilograms
  Daily Gain, Period: .23 kilograms
  Feed DM/Gain, Period: 5.17
[2]; Oral, 30 ppm, Day 57-70
  Daily Feed DM Consumption, Period: 1.26 kilograms
  Feed DM/Gain, Period: 9.00
[3]; feed 1 ppm, Day 35
  F/G: 1.60
  Weight Gain: 1379 g
[3]; feed 1 ppm, Day 44
  F/G: 1.72
  Weight Gain: 1917 g
[3]; feed 2.5 ppm, Day 35
  F/G: 1.55
  Weight Gain: 1431 g
[3]; feed 2.5 ppm, Day 44
  F/G: 1.69
  Weight Gain: 1961 g
[3]; feed 5 ppm, Day 35
  F/G: 1.61
  Weight Gain: 1381 g
[3]; feed 5 ppm, Day 44
  F/G: 1.72
  Weight Gain: 1929 g
[3]; feed 10 ppm, Day 35
  F/G: 1.60
  Weight Gain: 1356 g
[3]; feed 10 ppm, Day 44
  F/G: 1.74
  Weight Gain: 1883 g
[3]; feed 20 ppm, Day 35
  F/G: 1.61
  Weight Gain: 1364 g
[3]; feed 20 ppm, Day 44
  F/G: 1.72
  Weight Gain: 1901 g
[3]; feed 40 ppm, Day 35
  F/G: 1.63
  Weight Gain: 1334 g
[3]; feed 40 ppm, Day 44
  F/G: 1.72
  Weight Gain: 1898 g
[3]; feed 60 ppm, Day 35
  F/G: 1.57
  Weight Gain: 1334 g
[3]; feed 60 ppm, Day 44
  F/G: 1.72
  Weight Gain: 1875 g
[4]; i.p.
  LD50, safe limits: 648 to 1363 mg/kg
[4]; ip
  LD50: 940 mg/kg
[4]; po, per os
  LD50: > 2000 mg/kg
